In article PMC7686308, “Overcoming the blood–brain barrier by Annexin A1-binding peptide to target brain tumours” (British Journal of Cancer, 2020):
Peptide text beside a SMILES is read from it.

What was measured:
[1] = test system: ANXA1 exhibiting a free N-terminus; experiment: FCS binding to ANXA1 with free N-terminus; design: species or system human; conditions: IF7C-A546, 37 °C, 1 h, increase in diffusion time
Description: (§1) A mixture of IF7C-A546 with Anxa1 or MC16 (50 μl) was loaded into each well of a 96-well plate and incubated at 37 °C for 1 h. FCS was performed with the MF20 analytical system (Olympus) using a 543 nm He–Ne laser for illumination. Each sample was measured five times with a data acquisition time of 10 sec per measurement. IF7C(RR) binding was defined as an increase in translational diffusion time relative to a control.
(§2) Fig. 2 Binding of IF7 to the ANXA1 N-terminal domain and full-length ANXA1 protein in vitro. a Plate binding assay of N-terminal biotinylated IF7C(RR) to human MC16 peptide and its mutants. Each synthetic MC16 and its mutant peptide (10 nmoles) was bound to maleimide-activated plastic well through its C-terminal cysteine residue. Biotinylated IF7C(RR) peptide (1 μg/mL) was added to each well and binding of biotinylated peptide was detected by peroxidase-conjugated streptavidin and peroxidase colour reaction. b FCS analysis of IF7 with ANXA1 (left) and with MC16 peptides (right) in solution. […] The proposed model was further validated by dG scoring, which was calculated using MOE software with GBVI/WSA, a program allows us to compare calculated and observed energetics.[59] The IF7 docking pose was calculated to be −3.7 kcal/mol.

[2] = test system: subcutaneous colon tumours; conditions: mouse, in vivo; cited from earlier work
[3] = test system: tetrameric MC16; experiment: FCS binding to tetrameric MC16; design: species or system human; conditions: IF7C-A546, 37 °C, 1 h, diffusion time
[4] = test system: human MC16 peptide; experiment: Plate binding assay to human MC16 peptide; conditions: biotinylated IF7C(RR) 1 μg/mL, MC16 10 nmoles coated, peroxidase-streptavidin
Description: (§3) We next assessed IF7 binding to recombinant human ANXA1 protein and human MC16 peptide in three ways (Fig. 2a-c). First, we added biotinylated IF7 in solution to plastic wells coated with monomeric MC16 and determined IF7 binding by peroxidase-conjugated streptavidin and a peroxidase colour reaction (Fig. 2a). […] Thus, we modelled the ANXA1 dimer using the Zdock module for protein–protein docking.[26] The IF7 docking pose was calculated to be −3.7 kcal/mol (Fig. 2d).
as §2

[5] = test system: monomeric MC16; experiment: FCS binding to monomeric MC16; design: species or system human; conditions: IF7C-A546, 37 °C, 1 h, diffusion time
Description: as §1, §2

[6] = Histology of tumours from mice injected with IF7; format: in vivo, mouse; conditions: histological analysis, data not shown
[7] = test system: N-terminally His-Tagged ANXA1; conditions: plate binding analysis; cited from earlier work
Text: (§4) We next assessed IF7 binding to recombinant human ANXA1 protein and human MC16 peptide in three ways (Fig. 2a-c). First, we added biotinylated IF7 in solution to plastic wells coated with monomeric MC16 and determined IF7 binding by peroxidase-conjugated streptavidin and a peroxidase colour reaction (Fig. 2a). […] Second, we assessed binding of IF7 and MC16 in solution by fluorescence correlation spectrometry (FCS) ( ...

[8] = test system: ANXA1 with a free N-terminus; conditions: plate binding analysis; cited from earlier work
Text: as §4

[9] = test system: MC16 mutant peptides F7A, K9A and E15A; experiment: Plate binding assay to MC16 mutant peptides; design: species or system human; conditions: biotinylated IF7C(RR) 1 μg/mL, mutant peptide 10 nmoles coated
Description: as §3, §2

[10] = test system: N-terminally His-tagged ANXA1; experiment: FCS binding to N-terminally His-tagged ANXA1; design: species or system human; conditions: IF7C-A546, 37 °C, 1 h, diffusion time
Description: as §1, §2

[11] = test system: mouse MC16; experiment: Plate binding assay to mouse MC16 peptide
Description: as §2
Fig. 3 Targeting of IF7 to the brain tumour vasculature in vivo in the mouse. a Binding of IF7 and control peptides to mouse and human MC16 peptides by plate assay. Biotinylated IF7C(RR) and control C(RR) was assessed for their binding to MC16 in a similar manner as in Fig. 2a. b Targeting of fluorescent-labelled IF7 peptide to the brain tumour vasculature in the mouse. […] Blue fluorescence (left panels) represents nuclear Hoechst 33342 and green fluorescence (right) represents Alexa 488. […]

Q: What does the source list for `CC[C@H](C)[C@H](N)C(=O)N[C@@H](Cc1ccccc1)C(=O)N[C@@H](CC(C)C)C(=O)N[C@@H](CC(C)C)C(=O)N[C@@H](Cc1c[nH]c2ccccc12)C(=O)N[C@@H](CCC(N)=O)C(=O)N[C@@H](CCCNC(=N)N)C(=O)N[C@@H](CS)C(=O)N[C@@H](CCCNC(=N)N)C(=O)N[C@@H](CCCNC(=N)N)C(=O)O` [IF7] (H-IFLLWQRCRR-OH; N-terminus and C-terminus assumed)?
A: binding in solution to untagged ANXA1 [1]: IF7 bound to ANXA1 exhibiting a free N-terminus; fluorescent signals 15 min after i.v. injection [2]: fluorescent signals are seen in vesicles at mostly the basal side of vasculature; fluorescent signals 40 min after i.v. injection [2]: fluorescence is seen in the stroma and in tumour cells; binding in solution to tetrameric MC16 [3]: IF7 bound to tetrameric rather than monomeric MC16; IF7 binding to MC16 [4]: IF7 bound to WT MC16; binding in solution to MC16 monomer [5]: the diffusion time of IF7 with MC16 monomer did not increase; signs of inflammation in tumours [6]: did not reveal signs of inflammation; plate binding to N-terminally His-Tagged ANXA1 [7]: not N-terminally His-Tagged ANXA1; plate binding to ANXA1 with free N-terminus [8]: IF7 bound ANXA1 with a free N-terminus; IF7 binding to MC16 mutants [9]: binding was significantly reduced; binding in solution to N-terminally His-tagged ANXA1 [10]: not to N-terminally His-tagged ANXA1; binding to human and mouse MC16 compared ([11]; Fig. 3a, human versus mouse MC16): IF7 bound both human and mouse MC16 peptides equally; binding to mouse MC16 ([11]; biotinylated IF7C(RR), in a similar manner as in Fig. 2a): IF7 binding to N-terminal domain of mouse MC16 was confirmed
